Laboratory results published in paper PMC9657749, “Cytotoxic Activity and Docking Studies of 2-arenoxybenzaldehyde N-acyl Hydrazone and 1,3,4-Oxadiazole Derivatives against Various Cancer Cell Lines” (Molecules, 2022).

Legend:
[1] = tested on: MDA-MB-231 (breast adenocarcinoma) cells; experiment: Cell Titer Glo cell viability assay, MDA-MB-231; format: cell-based, human; settings: MDA-MB-231, 48 h, 25-300 µM, triplicate, means
Method: (§1) To determine the effect of N-acyl hydrazones and 2,5 substituted 1,3,4-oxadiazole derivatives, a dose-response curve was produced for each and every molecule based on the viability of A549 (lung carcinoma), PC-3 (prostate adenocarcinoma), and MDA-MB-231(breast adenocarcinoma) cancerous cell lines by using the Cell Titer Glo assay. The MRC-5 (lung fibroblast) cell line was used as the non-cancerous control group. For 48 h, the cytotoxic effects of novel derivatives on all of the cell lines were investigated in a dose-dependent manner.
(§2) In this study, four adherent cell lines were used: three from different cancer types and one from a regular fibroblast. The cancerous cells were human breast carcinoma (MDA-MB-231, ATCC code: HTB-26), human prostatic carcinoma (PC-3, ATCC code: CRL-1435), and human lung cancer epithelial cells (A549, ATCC code: CCL-185), while the fibroblasts in the control group were human fetal lung (MRC-5, ATCC code: CCL-171) cells. All cells were checked every few weeks for various sources of contamination.
(§3) […], MRC-5, and PC-3 cell lines were cultured in T75 flasks with high glucose DMEM medium (Pan Biotech, Aidenbach, Germany), and A549 cells were cultured with RPMI-1640 (Pan Biotech) containing 10% fetal bovine serum (Gibco, Waltham, MA, USA), 1% penicillin-streptomycin (Gibco), and 1% L-glutamine (Gibco) at 37 °C with 5% CO2. All the cells were removed from the flask with Trypsin/EDTA 0.25% (Gibco) when they reached 80% density.
(§4) To test the effect of different doses on cells, all types of cells were seeded into 96-well plates at a density of eight thousand cells in 100 µL volume per well. Cells were incubated at 37 °C with 5% CO2 for […]. After 24 h in the incubator, the medium on top of each well was discharged. All of the cells were treated with 25, 50, 100, 200, or 300 µM of fifteen N-acyl hydrazones and twelve 2,5-substituted 1,3,4-oxadiazole in a dose-increasing manner. Molecules were studied in triplicate for each concentration. To assess the viability of non-treated cells, a control group was placed in the setup with only cells and DMSO control treatments without any candidate molecules introduced. Plates were incubated for 48 h, and Cell Titer Glo reagent (Promega) was added on top of each well. Cells were then evaluated in terms of viability with the Cell Titer-Glo Luminescent Cell Viability Assay. Luminescence signals were detected with the SpectraMax i3x Multimode Detection Platform to obtain the cell viability percentages.

[2] = tested on: PC-3 (prostate adenocarcinoma) cells; experiment: Cell Titer Glo cell viability assay, PC-3; format: cell-based, human; settings: PC-3, 48 h, 25-300 µM, triplicate, means
Method: as §1, §2, §3, §4

A-549 cells = experiment: Scratch assay (cell migration), A549; format: cell-based, human; settings: 55 µM 1d, 15 µM 1e, 15 µM 2a, 0, 24, 48 h
Method: (§5) The dosages for MDA-MB-231 were 40 µM for 1d, 120 µM for 1e, and 30 µM for 2a. The dosages for A-549 were 55 µM for 1d, 15 µM for 1e, and 15 µM for 2a. Three photos were taken: one immediately after the application, one 24 h later, and one 48 h later. The images of each time stamp for all three molecules can be seen in Figure 4 for the A549 cell line and Figure 5 for the MDA-MB-231 cell line.
(§6) To make comparisons, each application was performed in triplicate for all three molecules; the averages and standard deviations were calculated, and the p values were calculated by considering the sample sizes.
(§7) MDA-MB-231 and A-549 cells were seeded for the scratch assay. A total of 100.000 cells were cultured in 1.5 mL complete medium per well on a 6-well plate, as detailed above. The 6-well plates were then incubated for 24 h at 37 °C. After 24 h, accumulated cells were scraped out with the tip of a 200 µL pipette. After discarding the media on top of the cells, the cells were treated for 48 h with three molecules: 1d, 1e, and 2a.
(§8) The dosages for the MDA-MB-231 cell line were 40 µM for 1d, 120 µM for 1e, and 30 µM for 2a. The dosages for the A-549 cell line were 55 µM for 1d, 15 µM for 1e, and 15 µM for 2a.
(§9) The cell states were evaluated under the microscope, and markings were made to obtain photos from the same location during the follow-up. Images of the determined reference points were captured under the microscope immediately after treatment, 24 h later, and 48 h later.

MDA-MB-231 cells = experiment: Scratch assay (cell migration), MDA-MB-231; format: cell-based, human; settings: 40 µM 1d, 120 µM 1e, 30 µM 2a, 0, 24, 48 h
Method: as §5, §6, §7, §8, §9

[3] = tested on: A549 (lung carcinoma) cells; experiment: Cell Titer Glo cell viability assay, A549; format: cell-based; settings: Homo sapiens, A549, 48 h, 25-300 µM, triplicate, means
Method: as §1, §2, §3, §4

[4] = tested on: MRC-5 (lung fibroblast) cells; experiment: Cell Titer Glo cell viability assay, MRC-5 non-cancerous control; format: cell-based; settings: Homo sapiens, MRC5, MRC-5 non-cancerous fibroblasts, 48 h, 25-300 µM, triplicate, means
Method: as §1, §2, §3, §4

SMILES	IC50 ([1]; Homo sapiens) [µM]	IC50 ([2]; Homo sapiens, 48 h) [µM]	Antimetastatic effect / wound healing rate, scratch assay (A-549 cells)	Antimetastatic effect / wound healing rate, scratch assay (MDA-MB-231 cells)	IC50 [3] [µM]	IC50 [4] [µM]	IC50 [1] [µM]	IC50 [2] [µM]
c1ccc(Oc2ccccc2-c2nnc(-c3ccccc3)o2)cc1 [2a]	24	66	did not show a significant antimetastatic effect	did not show a significant antimetastatic effect	29.3	74.5		
Clc1ccc(-c2nnc(-c3ccccc3Oc3ccccc3)o2)cc1 [2b]	46.9	82.2			152	36		
Clc1ccc(Oc2ccccc2-c2nnc(-c3cccnc3)o2)cc1 [2m]	108	124			137	124		
c1ccc(Oc2ccccc2-c2nnc(-c3ccco3)o2)cc1 [2d]	78.6	54.3			102	40.1		
N#Cc1ccc(Oc2ccccc2/C=N/NC(=O)c2ccco2)cc1 [1i]	20.7	84.6			208	31.7		
O=C(N/N=C/c1ccccc1Oc1ccc(Cl)cc1)c1ccccc1 [1k]	32.7	46.4			122	66.9		
Cc1nnsc1C(=O)N/N=C/c1ccccc1Oc1ccc(Cl)cc1 [1o]	100	27			89.7	7.78		
Cc1nnsc1C(=O)N/N=C/c1ccccc1Oc1ccc(C#N)cc1 [1j]	25.9	18.4			26.6	37.1		
O=C(N/N=C/c1ccccc1Oc1ccc(Cl)cc1)c1ccc(Cl)cc1 [1l]	77.7	30.2			39.4	14.6		
O=C(N/N=C/c1ccccc1Oc1ccc(Cl)cc1)c1ccco1 [1n]	37.9	30.4			39.4	50.6		
O=C(N/N=C/c1ccccc1Oc1ccc(Cl)cc1)c1cccnc1 [1m]	55.5	38.1			71.8	37.9		
N#Cc1ccc(Oc2ccccc2-c2nnc(-c3ccccc3)o2)cc1 [2f]	32.7	34.2			45.8	141		
N#Cc1ccc(Oc2ccccc2-c2nnc(-c3ccco3)o2)cc1 [2i]	23.1	41.4			72.9	23.1		
O=C(N/N=C/c1ccccc1Oc1ccccc1)c1ccccc1 [1a]	53	47.8			28.7	16.9		
Clc1ccc(Oc2ccccc2-c2nnc(-c3ccc(Cl)cc3)o2)cc1 [2l]	22.7	38.4			36.3	51.9		
N#Cc1ccc(Oc2ccccc2/C=N/NC(=O)c2ccccc2)cc1 [1f]	77.2	65.9			36.9	56.8		
Clc1ccc(Oc2ccccc2-c2nnc(-c3ccco3)o2)cc1 [2n]	30.4	25.6			28.8	35.6		
N#Cc1ccc(Oc2ccccc2/C=N/NC(=O)c2cccnc2)cc1 [1h]	65.8	78.3			73	66.9		
O=C(N/N=C/c1ccccc1Oc1ccccc1)c1ccc(Cl)cc1 [1b]	138	25.3			72.8	24.4		
c1ccc(Oc2ccccc2-c2nnc(-c3cccnc3)o2)cc1 [2c]	42.6	121			109	12.8		
Cc1nnsc1C(=O)N/N=C/c1ccccc1Oc1ccccc1 [1e]	108	18.1	did not show a significant antimetastatic effect	did not show a significant antimetastatic effect	13.4	87		
N#Cc1ccc(Oc2ccccc2-c2nnc(-c3ccc(Cl)cc3)o2)cc1 [2g]	55.7	127			64.8	16		
N#Cc1ccc(Oc2ccccc2/C=N/NC(=O)c2ccc(Cl)cc2)cc1 [1g]	45.1	66.5			31.8	62.8		
O=C(N/N=C/c1ccccc1Oc1ccccc1)c1ccco1 [1d]	31.5	9.39	did not show a significant antimetastatic effect	did not show a significant antimetastatic effect	49.8	44.7	31.5	9.39
O=C(N/N=C/c1ccccc1Oc1ccccc1)c1cccnc1 [1c]	50.8	86			208	43.5		
Clc1ccc(Oc2ccccc2-c2nnc(-c3ccccc3)o2)cc1 [2k]	79.2	65.8			90	58.3		
N#Cc1ccc(Oc2ccccc2-c2nnc(-c3cccnc3)o2)cc1 [2h]	38.2	78.2			78.6	23.1		
